Experimental data taken from patent publication US20100087493A1, “METHOD FOR IMPROVING THE PHARMACOKINETICS OF DRUGS METABOLIZED BY UGT2B10” (priority 2007, published 2010).
Where two headings read alike, the source gives them in different places.

How the values were obtained:
[1] = target: T1, Recombinant human UGT2B10 (Homo sapiens, UniProt P36537); assay: biochemical
T1 sequence (P36537 24-528): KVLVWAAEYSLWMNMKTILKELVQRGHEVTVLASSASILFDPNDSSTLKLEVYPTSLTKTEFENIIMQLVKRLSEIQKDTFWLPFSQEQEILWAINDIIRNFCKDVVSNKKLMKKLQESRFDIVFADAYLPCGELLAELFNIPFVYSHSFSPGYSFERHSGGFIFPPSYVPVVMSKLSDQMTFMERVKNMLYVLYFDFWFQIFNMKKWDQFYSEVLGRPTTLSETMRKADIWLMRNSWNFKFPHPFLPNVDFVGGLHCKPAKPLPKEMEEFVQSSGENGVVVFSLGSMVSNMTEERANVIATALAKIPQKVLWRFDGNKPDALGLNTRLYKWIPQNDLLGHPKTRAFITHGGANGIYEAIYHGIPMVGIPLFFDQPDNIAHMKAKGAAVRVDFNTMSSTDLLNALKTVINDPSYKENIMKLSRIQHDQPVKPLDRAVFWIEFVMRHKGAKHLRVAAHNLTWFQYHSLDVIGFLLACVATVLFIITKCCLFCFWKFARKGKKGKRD
Protocol: (§1) For the purpose of identifying a compound which acts as UGT2B10 modulator, recombinant cells that express UGT2B10 are prepared as described above. The cells expressing UGT2B10 are suspended in water and homogenized using known procedures. The incubation mixture is prepared by mixing recombinant UGT2B10 homogenate and uridine-5-diphosphoglucuronic acid (UDP-GA) as a glucuronic acid source in a suitable buffer such as phosphate buffer pH 7.4. […] The reaction is terminated as described above. Following centrifugation, the supernatants are analyzed and quantified for the presence of glucuronidated derivative of the substrate as described above. The UGT2B10 enzyme activity towards the substrate, in the absence and presence of the modulator, is calculated as the amount of glucuronide formed (pmol) divided by incubation time (min) and protein amount (mg/incubation). The effect of the modulator, inhibition or activation, on the enzyme activity towards the substrate is calculated as % enzyme activity at each modulator concentration compared to the enzyme activity measured in the absence of the modulator. IC50, inhibitor concentration that inhibits the activity by 50%, is used as the measure of the inhibitory effect, and the activation effect is calculated as % increase in enzyme activity. […]
(§2) The samples were analyzed by high-performance liquid chromatography-mass spectrometry (HPLC-MS).

UGT1A4 = UGT1A4 (Homo sapiens, UniProt P22310); assay: biochemical
Protocol: as §1, §2

[2] = target: T1, Recombinant human UGT2B10
Protocol: For the purpose of identifying compounds which are directly metabolized by UGT2B10, recombinant cells that express UGT2B10 are prepared according to known methods. For example, recombinant UGT2B10 can be expressed in baculovirus-infected insect cells as described e.g. in Kurkela, M. et al., Journal of Biological Chemistry, 278(6), 3536-3544, 2003. The cells expressing UGT2B10 are suspended in water and homogenized using known procedures. Incubation mixture is prepared by mixing recombinant UGT2B10 homogenate and uridine-5-diphospho-glucuronic acid (UDP-GA) as a glucuronic acid source in a suitable buffer such as phosphate buffer pH 7.4. […] The reaction is terminated by protein precipitation, e.g. by addition of trifluoroacetic acid, or acetonitrile if the formed N-glucuronide is expected to be acid-labile, and cooling. Following centrifugation, the supernatants are analysed for the presence of glucuronidated derivative of the test compound, wherein any suitable analyzing method can be used. High pressure liquid chromatography followed by mass spectrometry is the preferred method. The glucuronides are quantified using authentic glucuronide standards or another suitable methods such as substrate depletion. The enzyme activity of UGT2B10 towards the tested compound is calculated as the amount of glucuronide formed (pmol) divided by incubation time (min) and protein amount (mg/incubation). Example 1 of the present application describes a procedure suitable for identifying compounds that are glucuronidated by UGT2B10.
Recombinant human UGT2B10 were produced in baculovirus-infected insect cells and used as cell homogenate after suspending the cells with water. The glucuronidation rates were determined by incubating the substrates, nicotine and cotinine, with the enzyme UGT2B10 using uridine-5′-diphosphoglucuronic acid (UDP-GA) as a cofactor. The reaction mixtures were incubated at +37° C. for 1-2 hours. The samples were analyzed by high-performance liquid chromatography-mass spectrometry (HPLC-MS). The formed glucuronides were quantified using authentic glucuronide standards. The enzyme activity of UGT2B10 towards the tested compound was calculated as pmol glucuronide formed divided by incubation time (min) and protein amount (mg/incubation).

UGT2B10 versus UGT1A4 = target: T2, UGT2B10 versus UGT1A4 (Homo sapiens, UniProt P36537); assay: Km of nicotine glucuronidation, UGT2B10; type: in vitro ADME; settings: read-out: Km for UGT2B10 fold less compared to UGT1A4 (selectivity)
T2 construct: made in house; host or cells: baculovirus-infected insect cells (used as cell homogenate)
T2 sequence (P36537 24-528): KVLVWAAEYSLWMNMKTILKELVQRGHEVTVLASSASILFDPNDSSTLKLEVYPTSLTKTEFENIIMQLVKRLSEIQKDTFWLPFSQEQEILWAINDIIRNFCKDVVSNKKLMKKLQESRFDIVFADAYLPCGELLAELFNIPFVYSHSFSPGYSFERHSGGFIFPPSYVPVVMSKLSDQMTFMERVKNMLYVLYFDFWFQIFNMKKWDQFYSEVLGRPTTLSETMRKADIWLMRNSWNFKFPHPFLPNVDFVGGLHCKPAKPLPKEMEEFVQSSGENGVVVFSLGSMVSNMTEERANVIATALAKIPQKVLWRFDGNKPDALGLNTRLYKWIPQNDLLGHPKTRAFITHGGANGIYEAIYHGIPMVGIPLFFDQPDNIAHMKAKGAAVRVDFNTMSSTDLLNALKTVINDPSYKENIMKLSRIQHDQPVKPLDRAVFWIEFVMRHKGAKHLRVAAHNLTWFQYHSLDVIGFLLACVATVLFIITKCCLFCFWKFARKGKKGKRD
Text: (§3) The reaction is terminated as described above. […] 1.1 (SPSS Inc., Chicago, Ill.).
(§4) 1.1 (SPSS Inc., Chicago, Ill.) software.

in vitro = settings: human, human liver microsomes
Protocol: The reaction is terminated as described above.
The reaction mixtures were incubated at +37° C. for 1-2 hours. The samples were analyzed by high-performance liquid chromatography-mass spectrometry (HPLC-MS).

[3] = substrate: CN1CCCC1c1cccnc1; assay: Km of nicotine glucuronidation, UGT1A4; type: in vitro ADME, human; settings: other: nicotine glucuronidation, 0.002-2 mM, microsomal membranes; pH 7.4; 37.0 °C
Text: as §3, §4

[4] = substrate: CN1CCCC1c1cccnc1; assay: Km of nicotine glucuronidation, UGT2B10; type: in vitro ADME, human; settings: other: nicotine glucuronidation, 0.002-2 mM, cell homogenate; pH 7.4; 37.0 °C
Text: as §3, §4

`Cc1cccc(C(C)c2cnc[nH]2)c1C` (stereo in doubt) [Levomedetomidine, (S)-4-[1-(2,3-dimethylphenyl)-ethyl]-3H-imidazole] showed an IC50 [1] of 13 µM and an IC50 (UGT1A4) of over 1 mM.

With `CN1C(=O)CC[C@H]1c1cccnc1` [Cotinine, cotinine] the “substrate for UGT2B10” value ([2]; human) was “substrates for UGT2B10” and the UGT2B10 activity ([2]; human, 2 mM) was 12.7 pmol/min/mg prot.

For `CN1CCCC1c1cccnc1` (stereo not shown) [Nicotine, nicotine], the UGT2B10 activity ([2]; in vitro, 2 mM substrate concentration, cell homogenate) was 2.9 pmol/min/mg prot, the “substrate for UGT2B10” value ([2]; in vitro, cell homogenate) was “substrates for UGT2B10” and the selectivity ratio (UGT2B10 versus UGT1A4) was 8. For the same molecule, the Km (in vitro) was 330 µM.

B1: recombinant human UGT1A4 (Homo sapiens) (protein)
chain: GKVLVVPTDGSPWLSMREALRELHARGHQAVVLTPEVNMHIKEEKFFTLTAYAVPWTQKEFDRVTLGYTQGFFETEHLLKRYSRSMAIMNNVSLALHRCCVELLHNEALIRHLNATSFDVVLTDPVNLCGAVLAKYLSIPAVFFWRYIPCDLDFKGTQCPNPSSYIPKLLTTNSDHMTFLQRVKNMLYPLALSYICHTFSAPYASLASELFQREVSVVDLVSYASVWLFRGDFVMDYPRPIMPNMVFIGGINCANGKPLSQEFEAYINASGEHGIVVFSLGSMVSEIPEKKAMAIADALGKIPQTVLWRYTGTRPSNLANNTILVKWLPQNDLLGHPMTRAFITHAGSHGVYESICNGVPMVMMPLFGDQMDNAKRMETKGAGVTLNVLEMTSEDLENALKAVINDKSYKENIMRLSSLHKDRPVEPLDLAVFWVEFVMRHKGAPHLRPAAHDLTWYQYHSLDVIGFLLAVVLTVAFITFKCCAYGYRKCLGKKGRVKKAHKSKTH
notes: made in house; host or cells: baculovirus-infected insect cells (microsomal membranes isolated)
B1 gave a Km [3] of 2.4 mM.

B2: Recombinant human UGT2B10 (Homo sapiens) (protein)
chain: KVLVWAAEYSLWMNMKTILKELVQRGHEVTVLASSASILFDPNDSSTLKLEVYPTSLTKTEFENIIMQLVKRLSEIQKDTFWLPFSQEQEILWAINDIIRNFCKDVVSNKKLMKKLQESRFDIVFADAYLPCGELLAELFNIPFVYSHSFSPGYSFERHSGGFIFPPSYVPVVMSKLSDQMTFMERVKNMLYVLYFDFWFQIFNMKKWDQFYSEVLGRPTTLSETMRKADIWLMRNSWNFKFPHPFLPNVDFVGGLHCKPAKPLPKEMEEFVQSSGENGVVVFSLGSMVSNMTEERANVIATALAKIPQKVLWRFDGNKPDALGLNTRLYKWIPQNDLLGHPKTRAFITHGGANGIYEAIYHGIPMVGIPLFFDQPDNIAHMKAKGAAVRVDFNTMSSTDLLNALKTVINDPSYKENIMKLSRIQHDQPVKPLDRAVFWIEFVMRHKGAKHLRVAAHNLTWFQYHSLDVIGFLLACVATVLFIITKCCLFCFWKFARKGKKGKRD
notes: made in house; host or cells: baculovirus-infected insect cells (used as cell homogenate)
Work on B2 yielded a Km [4] of 0.29 mM.
